Experimental findings from US20170088532A1, “INHIBITORS OF LPXC” (The Regents of the University of California, priority 2013, published 2017) are described below.

Read-outs that look alike come from different tables or passages of the source.

The experiment addresses T1, E. Coli LpxC (Escherichia coli, UniProt P0A725).
T1 sequence (P0A725 1-305): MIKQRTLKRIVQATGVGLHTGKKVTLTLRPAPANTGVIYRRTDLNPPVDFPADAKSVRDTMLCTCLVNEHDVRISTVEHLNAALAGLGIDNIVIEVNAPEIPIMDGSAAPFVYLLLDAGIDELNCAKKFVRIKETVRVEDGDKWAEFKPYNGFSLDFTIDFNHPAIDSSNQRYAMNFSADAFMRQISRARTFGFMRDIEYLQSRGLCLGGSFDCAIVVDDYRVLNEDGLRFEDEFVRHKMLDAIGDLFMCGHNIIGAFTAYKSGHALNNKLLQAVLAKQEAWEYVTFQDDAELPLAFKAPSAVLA
In words: Inhibition of LpxC from E. coli. The class given is biochemical. To be noted: for inhibition at 50 µM: compound at 50 μM. From the text: Methods for assessing inhibition of LpxC are known in the art.

Where [1] appears, read: Table 1, read-out: % Inhibition E. Coli LpxC at 50 μM.
Setting [2] is: Table 2, values in parentheses, read-out: (% Inhibition of E. Coli LpxC at 50 μM).

In the case of `Cc1cc(=O)c(O)c(CNc2ccc(-c3ccccc3)cc2)o1` [Compound 014], the inhibition at 50 µM is 23% under setting [1] and 23% under setting [2].

For `COc1ccc(-c2ccc(NCc3occc(=O)c3O)cc2)cc1` [Compound 027], the inhibition at 50 µM by setting is: under setting [1], 13%; under setting [2], 13%.

As to `COc1ccc(-c2ccc(NCc3oc(CO)cc(=O)c3O)cc2)cc1` [Compound 018, 3-hydroxy-6-(hydroxymethyl)-2-(((4′-methoxy-[1,1′-biphenyl]-4-yl)amino)methyl)-4H-pyran-4-one], the IC50 (E. Coli LpxC, Table 2, values without parentheses) was determined as 12.7 µM. Besides, the inhibition at 50 µM under setting [1] was 81%.

For `O=c1cc(CO)oc(CNc2ccc(-c3ccccc3)cc2)c1O` [Compound 010], the inhibition at 50 µM is, setting by setting: under setting [1], 39%; under setting [2], 39%.

Regarding `O=c1ccoc(CNc2ccc(-c3ccccc3)cc2)c1O` [Compound 013], the inhibition at 50 µM was 67% under setting [1] and 67% under setting [2].

On to `COC(=O)c1cc(=O)c(O)c(CNc2ccc(-c3ccc(OC)cc3)cc2)o1` [Compound 035], for which the inhibition at 50 µM reads like this: under setting [1], 29%; under setting [2], 29%.

What is called inhibition is the drop in the measured response relative to a control, in per cent. One may read the IC50 as the point on the concentration scale where inhibition reaches its midpoint.
